Measurements taken from patent publication US12172995B2, “Substituted indole and indazole compounds” (BRISTOL-MYERS SQUIBB COMPANY, priority 2018, dated 2024).

How the values were obtained:
Format in all cases: cell-based
human TLR7 = target: T1, human TLR7 (Homo sapiens, UniProt Q9NYK1); assay: TLR7 inhibition reporter assay (HEK-Blue SEAP); conditions: HEK-Blue cells overexpressing human TLR7, stimulated with gardiquimod 7.5 μM, 22 hour incubation
T1 construct: host or cells: HEK-Blue cells
T1 sequence (Q9NYK1 27-1049): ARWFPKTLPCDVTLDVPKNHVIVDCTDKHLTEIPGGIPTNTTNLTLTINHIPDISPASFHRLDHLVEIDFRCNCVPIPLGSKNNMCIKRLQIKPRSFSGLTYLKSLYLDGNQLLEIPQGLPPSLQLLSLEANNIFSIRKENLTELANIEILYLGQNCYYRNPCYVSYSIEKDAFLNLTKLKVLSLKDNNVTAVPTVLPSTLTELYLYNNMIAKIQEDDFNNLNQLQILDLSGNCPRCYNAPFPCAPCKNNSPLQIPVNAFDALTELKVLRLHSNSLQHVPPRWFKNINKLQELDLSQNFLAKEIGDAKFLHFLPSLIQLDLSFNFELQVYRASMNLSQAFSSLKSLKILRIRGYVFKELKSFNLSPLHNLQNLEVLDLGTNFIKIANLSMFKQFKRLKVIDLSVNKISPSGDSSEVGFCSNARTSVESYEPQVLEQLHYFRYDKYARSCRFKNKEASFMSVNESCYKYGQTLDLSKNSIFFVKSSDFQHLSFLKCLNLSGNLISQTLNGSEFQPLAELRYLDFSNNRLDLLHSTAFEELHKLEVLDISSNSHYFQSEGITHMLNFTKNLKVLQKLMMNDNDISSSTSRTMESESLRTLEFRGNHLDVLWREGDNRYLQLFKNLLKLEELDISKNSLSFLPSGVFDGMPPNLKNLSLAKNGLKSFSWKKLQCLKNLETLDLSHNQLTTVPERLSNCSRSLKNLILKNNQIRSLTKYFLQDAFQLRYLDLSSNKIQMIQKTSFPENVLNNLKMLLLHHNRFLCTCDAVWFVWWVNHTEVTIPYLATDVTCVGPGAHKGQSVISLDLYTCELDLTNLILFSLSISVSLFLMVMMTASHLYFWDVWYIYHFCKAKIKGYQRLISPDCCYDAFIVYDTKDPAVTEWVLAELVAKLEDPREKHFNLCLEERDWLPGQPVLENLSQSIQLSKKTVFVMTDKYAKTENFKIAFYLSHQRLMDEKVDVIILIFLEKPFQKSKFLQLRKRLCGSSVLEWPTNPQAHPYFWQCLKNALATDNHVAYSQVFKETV
In short: (§1)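 HEK-Blue cells overexpressing the receptor, with an NF-κB/AP-1-driven SEAP reporter, were pre-treated with compound (0.05 nM to 50 μM) for 30 min at room temperature. Stimulation used gardiquimod 7.5 μM (TLR7), R848 15.9 μM (TLR8) or ODN2006 5 nM (TLR9), followed by 22 h at 37 °C.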

human TLR8 = target: T2, human TLR8 (Homo sapiens, UniProt Q9NR97); assay: TLR8 inhibition reporter assay (HEK-Blue SEAP); conditions: HEK-Blue cells overexpressing human TLR8, stimulated with R848 15.9 μM, 22 hour incubation
T2 construct: host or cells: HEK-Blue cells
T2 sequence (Q9NR97 27-1041): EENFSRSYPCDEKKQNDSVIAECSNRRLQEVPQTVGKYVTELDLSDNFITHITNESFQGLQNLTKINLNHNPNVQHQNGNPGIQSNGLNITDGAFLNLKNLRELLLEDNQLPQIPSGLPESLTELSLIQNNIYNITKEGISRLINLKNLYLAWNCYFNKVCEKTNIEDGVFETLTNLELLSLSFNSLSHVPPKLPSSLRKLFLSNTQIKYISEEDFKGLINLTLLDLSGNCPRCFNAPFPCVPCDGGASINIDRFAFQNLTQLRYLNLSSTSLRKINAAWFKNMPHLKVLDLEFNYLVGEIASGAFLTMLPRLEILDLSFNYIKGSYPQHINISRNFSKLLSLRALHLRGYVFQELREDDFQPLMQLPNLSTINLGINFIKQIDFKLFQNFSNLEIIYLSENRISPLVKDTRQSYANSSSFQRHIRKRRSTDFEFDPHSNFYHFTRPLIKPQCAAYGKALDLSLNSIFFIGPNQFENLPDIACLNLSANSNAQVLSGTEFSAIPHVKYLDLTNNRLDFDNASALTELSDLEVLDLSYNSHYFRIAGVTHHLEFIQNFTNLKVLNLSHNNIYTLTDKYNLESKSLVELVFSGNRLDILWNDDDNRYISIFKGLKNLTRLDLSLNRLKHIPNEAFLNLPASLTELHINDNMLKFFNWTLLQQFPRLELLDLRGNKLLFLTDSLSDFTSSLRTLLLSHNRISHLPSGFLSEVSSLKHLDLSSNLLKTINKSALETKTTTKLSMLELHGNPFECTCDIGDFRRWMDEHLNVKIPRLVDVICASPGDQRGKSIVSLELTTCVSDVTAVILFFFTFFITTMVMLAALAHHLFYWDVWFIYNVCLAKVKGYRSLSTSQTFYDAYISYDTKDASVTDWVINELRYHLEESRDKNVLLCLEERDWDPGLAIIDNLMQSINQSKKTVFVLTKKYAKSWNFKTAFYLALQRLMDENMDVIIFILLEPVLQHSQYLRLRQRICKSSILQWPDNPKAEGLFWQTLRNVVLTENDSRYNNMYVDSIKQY
In short: as §1

human TLR9 = target: T3, human TLR9 (Homo sapiens, UniProt Q9NR96); assay: TLR9 inhibition reporter assay (HEK-Blue SEAP); conditions: HEK-Blue cells overexpressing human TLR9, stimulated with ODN2006 5 nM, 22 hour incubation
T3 construct: host or cells: HEK-Blue cells
T3 sequence (Q9NR96 26-1032): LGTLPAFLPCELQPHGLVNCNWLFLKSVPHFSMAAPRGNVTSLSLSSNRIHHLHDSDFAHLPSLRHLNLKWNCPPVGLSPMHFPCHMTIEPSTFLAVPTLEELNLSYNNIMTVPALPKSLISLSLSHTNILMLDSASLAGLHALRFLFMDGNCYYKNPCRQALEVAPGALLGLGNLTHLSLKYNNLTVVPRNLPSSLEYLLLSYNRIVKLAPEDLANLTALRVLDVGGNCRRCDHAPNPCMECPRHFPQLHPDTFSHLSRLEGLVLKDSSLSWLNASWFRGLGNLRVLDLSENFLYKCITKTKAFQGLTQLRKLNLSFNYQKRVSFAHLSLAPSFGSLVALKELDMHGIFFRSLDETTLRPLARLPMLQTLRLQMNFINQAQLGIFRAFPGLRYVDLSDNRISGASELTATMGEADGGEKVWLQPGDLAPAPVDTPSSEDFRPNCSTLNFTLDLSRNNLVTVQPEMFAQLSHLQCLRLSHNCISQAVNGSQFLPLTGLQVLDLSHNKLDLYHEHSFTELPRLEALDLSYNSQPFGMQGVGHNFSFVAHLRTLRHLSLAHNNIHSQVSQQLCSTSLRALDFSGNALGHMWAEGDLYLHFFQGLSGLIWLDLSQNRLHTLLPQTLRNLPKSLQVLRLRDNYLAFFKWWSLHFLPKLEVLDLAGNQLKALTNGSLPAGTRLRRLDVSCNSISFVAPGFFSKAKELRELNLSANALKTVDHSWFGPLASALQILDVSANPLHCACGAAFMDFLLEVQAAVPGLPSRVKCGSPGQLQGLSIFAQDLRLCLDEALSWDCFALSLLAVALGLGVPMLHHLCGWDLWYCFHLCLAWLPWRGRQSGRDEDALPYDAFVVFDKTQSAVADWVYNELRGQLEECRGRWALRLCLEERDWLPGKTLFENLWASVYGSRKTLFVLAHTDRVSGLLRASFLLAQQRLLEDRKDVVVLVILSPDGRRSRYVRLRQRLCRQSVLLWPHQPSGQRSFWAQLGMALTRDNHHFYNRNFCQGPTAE
In short: as §1

Compound	IC50 (human TLR7) [nM]	IC50 (human TLR8) [nM]	IC50 (human TLR9) [nM]
CCc1cc2c(C3CCN(C4CCOCC4)CC3)n[nH]c2cc1-c1cc(C)c2ncnn2c1 [Example 88, 6-(5-ethyl-3-(1-(tetrahydro-2H-pyran-4-yl)piperidin-4-yl)-1H-indazol-6-yl)-8-methyl-[1,2,4]triazolo[1,5-a]pyridine]	3.7	0.2	14200
Cc1cc2c(C3CCN(CC(C)(C)O)CC3)n[nH]c2cc1-c1cc(C)c2ncnn2c1 [Example 67, 2-methyl-1-(4-(5-methyl-6-(8-methyl-[1,2,4]triazolo[1,5-a]pyridin-6-yl)-1H-indazol-3-yl)piperidin-1-yl)propan-2-ol]	23.8	0.9	3960
Cc1cc2c(C3CCNCC3)n[nH]c2cc1-c1cc(C)c2nnnn2c1 [Example 74, 8-methyl-6-(5-methyl-3-(piperidin-4-yl)-1H-indazol-6-yl) tetrazolo[1,5-a]pyridine]	49.3	15.5	4940
Cc1cc2c(C3CCN(CCC#N)CC3)n[nH]c2cc1-c1cc(C)c2ncnn2c1 [Example 72, 3-(4-(5-methyl-6-(8-methyl-[1,2,4]triazolo[1,5-a]pyridin-6-yl)-1H-indazol-3-yl)piperidin-1-yl)propanenitrile]	50.8	2.3	11200
Cc1cc2c(N3CCNCC3)n[nH]c2cc1-c1cc(C)c2ncnn2c1 [Example 205, 8-methyl-6-(5-methyl-3-(piperazin-1-yl)-1H-indazol-6-yl)-[1,2,4]triazolo[1,5-a]pyridine]	14.1	0.7	6100
Cc1cc(-c2ccc3c(C4CCC(N(C)C)CC4)c[nH]c3c2)cn2ncnc12 (single isomer, unassigned) [Example 15, N,N-dimethyl-4-(6-(8-methyl-[1,2,4]triazolo[1,5-a]pyridin-6-yl)-1H-indol-3-yl) cyclohexan-1-amine]	29.4	25.9	1130

Other lines, results leading:

IC50 (human TLR7) [nM]	IC50 (human TLR8) [nM]	IC50 (human TLR9) [nM]	Compound
9.8	3.3	1370	Cc1cc2c(C3CCN(CC#N)CC3)n[nH]c2cc1-c1cc(C)c2ncnn2c1 [Example 71, 2-(4-(5-methyl-6-(8-methyl-[1,2,4]triazolo[1,5-a]pyridin-6-yl)-1H-indazol-3-yl)piperidin-1-yl)acetonitrile]
12.4	0.4	5140	Cc1cc2c(C3CCC(NC4CC4)CC3)n[nH]c2cc1-c1cc(C)c2ncnn2c1 (stereo not drawn) [Example 37, N-cyclopropyl-4-(5-methyl-6-(8-methyl-[1,2,4]triazolo[1,5-a]pyridin-6-yl)-1H-indazol-3-yl)cyclohexan-1-amine]
10.5	43.9	3210	Cc1cc(-c2cc(C)c3ncnn3c2)cc2[nH]nc(C3CCCN(CC(=O)N(C)C)C3)c12 (stereo not drawn) [Example 59, N,N-dimethyl-2-(3-(4-methyl-6-(8-methyl-[1,2,4]triazolo[1,5-a]pyridin-6-yl)-1H-indazol-3-yl)piperidin-1-yl)acetamide]
1.5	0.1	6450	Cc1cc(-c2cc3[nH]nc(C4CCC(N5CCC(F)C5)CC4)c3cc2C(C)C)cn2ncnc12 (stereo not drawn) [Example 164, 6-(3-(4-(3-fluoropyrrolidin-1-yl)cyclohexyl)-5-isopropyl-1H-indazol-6-yl)-8-methyl-[1,2,4] triazolo[1,5-a]pyridine]
2.6	0.1	7940	CCc1cc2c(C3CCN(C(C)C)CC3)n[nH]c2cc1-c1cc(C)c2ncnn2c1 [Example 90, 6-(5-ethyl-3-(1-isopropylpiperidin-4-yl)-1H-indazol-6-yl)-8-methyl-[1,2,4]triazolo[1,5-a]pyridine]
6.9	37.8	2110	Cc1cc(-c2cc(C)c3ncnn3c2)cc2[nH]nc(C3CCN(CC(=O)N(C)C)CC3)c12 [Example 76, N,N-dimethyl-2-(4-(4-methyl-6-(8-methyl-[1,2,4]triazolo[1,5-a]pyridin-6-yl)-1H-indazol-3-yl)piperidin-1-yl) acetamide]
13.5	19.5	3340	Cc1cc(-c2cc(C)c3ncnn3c2)cc2[nH]nc(C3CCCN(C)C3)c12 (stereo not drawn) [Example 61, 8-methyl-6-(4-methyl-3-(1-methylpiperidin-3-yl)-1H-indazol-6-yl)-[1,2,4]triazolo[1,5-a]pyridine]
1.9	0.1	8470	Cc1cc(-c2cc3[nH]nc(C4CCC(NCCS(C)(=O)=O)CC4)c3cc2C(C)C)cn2ncnc12 (stereo not drawn) [Example 127, 4-(5-isopropyl-6-(8-methyl-[1,2,4]triazolo[1,5-a]pyridin-6-yl)-1H-indazol-3-yl)-N-(2-(methylsulfonyl)ethyl) cyclohexan-1-amine]
